In US8829014B2, “Thiazole and thiophene analogues, and their use in treating autoimmune diseases and cancers” (Board of Supervisors of Louisiana State University and …, priority 2006, dated 2014):

Key:
carageenan-induced edema = experiment: Carrageenan-induced rat paw edema test (anti-inflammatory activity); type: in vivo, Sprague-Dawley rats; details: rat paw edema, 50 mg/kg, reading 3 hours after carrageenan, [(Control−Test)/Control]×100%; for inhibition in vivo at 50 mg/kg: Rattus norvegicus, po, 3 h, read-out: % Protection P
How it was run: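 Sprague-Dawley rats (male and female, 150-250 g), fasted 18 h, given compound orally at 50 mg/kg in 0.1% sodium CMC (alternatively i.v., s.c. or i.p.). 1% carrageenan injected sub-plantar in right hind paw 1 h later. Paw displacement read again 3 h later; % protection = [(Control−Test)/Control]×100 versus saline control.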

NF-κB = experiment: TNF-α-induced NF-κB-dependent luciferase expression in HEK cells; type: cell-based; details: luciferase in HEK/NF-κB cells, as described in Example 398; for inhibition at 1 µM: Homo sapiens, HEK293, 1 uM, read-out: NFkB inhibition @ 1 uM
AP-1 = experiment: PMA-induced AP-1 luciferase expression in HEK cells; type: cell-based; details: luciferase in HEK/AP-1 cells, as described in Example 398; for inhibition at 1 µM: AP1, 1 uM

Compound | inhibition in vivo at 50 mg/kg (carageenan-induced edema) [%] | inhibition at 1 µM (NF-κB) [%] | inhibition at 1 µM (AP-1) [%] | % Protection P (carageenan-induced edema) [%] | NFkB inhibition @ 1 uM (NF-κB) | AP-1 inhibition @ 1 uM (AP-1)
COC(=O)Nc1nc(Cc2ccccc2)c(C(=O)c2sc(NC(=O)OC)nc2Cc2ccccc2)s1 [Example 137, Dimethyl[carbonyl-bis(4-benzyl-1,3-thiazole-5,2-diyl)]biscarbamate] | 47.2 | 7.69 | 51.3 | – | – | –
O=C(c1ccncc1)c1sc(N2CCN(C(=O)c3ccco3)CC2)nc1-c1ccco1 [Example 377, {2-[4-(Furan-2-carbonyl)-piperazin-1-yl]-4-furan-2-yl-thiazol-5-yl}-pyridin-4-yl-methanone] | 32 | -7.88 | 4.84 | – | – | –
Cc1ccc(C(=O)c2sc(N3CCN(C(=O)c4ccco4)CC3)nc2-c2ccco2)cc1 [Example 371, {2-[4-(Furan-2-carbonyl)-piperazin-1-yl]-4-furan-2-yl-thiazol-5-yl}-p-tolyl-methanone] | 34 | 10.4 | 25.6 | – | – | –
CC(=O)Nc1ccc(C(=O)c2cc(-c3ccc(NC(C)=O)cc3)c(N3CCOCC3)s2)cc1 [Example 73, N-{4-[5-(4-acetylamino-benzoyl)-2-morpholin-4-yl-thiophene-3-yl]-phenyl}-acetamide] | -23.5 | -28.6 | 19.9 | – | – | –
Bis-[2-(2-furoyl-amino)-4-benzayl-thiazole-5-yl]-methanone [Example 136] | – | – | – | 45.13 | 44.46 | 32.23
O=C(c1cccnc1)c1sc(N2CCN(C(=O)c3ccco3)CC2)nc1-c1ccco1 [Example 376, {2-[4-(Furan-2-carbonyl)-piperazin-1-yl]-4-furan-2-yl-thiazol-5-yl}-pyridin-3-yl-methanone] | 33 | -14.1 | 45.9 | – | – | –
CC(=O)Nc1ccc(-c2cc(-c3nc4ccccc4c(=O)n3-c3ccccc3)sc2N2CCOCC2)cc1 [Example 274, N-{4-[2-Morpholin-4-yl-5-(4-oxo-3-phenyl-3-,4-dihydro-quinazolin-2-yl)-thiophene-3-yl]-phenyl}-acetamide] | – | – | – | 28 | 29 | –
CC(=O)c1ccc(-n2c(-c3cc(-c4ccc(S(C)(=O)=O)cc4)c(N4CCOCC4)s3)nc3ccccc3c2=O)cc1 [Example 317, 2-[4-(4-Methanesulphonyl-phenyl)-5-morpholin-4-yl-thiophen-2-yl]-3-(4-acetyl-phenyl)-3H-quinazolin-4-one] | 73 | 46 | 31 | – | – | –
CCOC(=O)Nc1nc(Cc2ccccc2)c(C(=O)c2sc(NC(=O)OCC)nc2Cc2ccccc2)s1 [Example 138, Diethyl[carbonyl-bis(4-benzyl-1,3-thiazole-5,2-diyl)]biscarbamate] | 88.9 | 55.6 | 83.6 | – | – | –
CS(=O)(=O)c1ccc(C(=O)c2cc(-c3ccc(Cl)cc3)c(N3CCOCC3)s2)cc1 [Example 84, [4-(4-Chloro-phenyl)-5-morpholin-4-yl-thiophen-2-yl]-(4-methansulfonyl-phenyl)-methanone] | 23 | -11.7 | 30.9 | – | – | –
O=C(c1cccnc1)c1sc(N2CCN(C(=O)c3ccco3)CC2)nc1-c1ccccc1 [Example 386, {2-[4-(Furan-2-carbonyl)-piperazin-1-yl]-4-phenyl-thiazol-5-yl}-pyridin-3-yl-methanone] | 23 | 52.8 | 22.5 | – | – | –
O=C(c1cccnc1)c1cc(-c2ccc(Cl)cc2)c(N2CCOCC2)s1 [Example 86, [4-(4-Chloro-phenyl)-5-morpholin-4-yl-thiophen-2-yl]-pyridin-3-yl-methanone] | 28.1 | 3.6 | 15.2 | – | – | –
O=C(c1cc(-c2ccc(Cl)cc2)c(N2CCOCC2)s1)c1ccc(Cl)cc1Cl [Example 82, [4-(4-Chloro-phenyl)-5-morpholin-4-yl-thiophen-2-yl]-(2,4-dichloro-phenyl)-methanone] | 22.8 | 0.6 | 34.3 | – | – | –
CS(=O)(=O)c1ccc(C(=O)c2cc(-c3ccncc3)c(N3CCOCC3)s2)cc1 [Example 108, (4-Methylsulfonyl-phenyl)-(5-morpholin-4-yl-4-pyridin-4-yl-thiophen-2-yl)-methanone] | 54.2 | -8.31 | 46.6 | – | – | –
COc1ccc(C(=O)c2sc(Nc3ccc(Cl)cc3)nc2N)cc1 [Example 332, [4-Amino-2-(4-chloro-phenylamino)-thiazol-5-yl]-(4-methoxy-phenyl)-methanone] | 36 | 0.13 | -32.2 | – | – | –
COc1c(C)cc(-c2cc(-c3ccc(S(C)(=O)=O)cc3)c(N3CCOCC3)s2)nc1C [Example 52, 4-[3-(4-Methanesulfonyl-phenyl)-5-(5-methoxy-4,6-dimethyl-pyridine-2-yl)-thiophene-2-yl]-morpholine] | 61.1 | 5.81 | -7.93 | – | – | –
COc1ccc(Nc2nc(N)c(C(=O)c3ccc(Cl)cc3Cl)s2)cc1 [Example 346, ([4-Amino-2-(4-methoxy-phenylamino)-thiazol-5-yl]-(2,4-dichloro-phenyl)-methanone)] | 28.3 | -4.13 | 64.6 | – | – | –
CS(=O)(=O)c1ccc(-c2cc(C(=O)c3ccncc3)sc2N2CCOCC2)cc1 [Example 63, [4-(4-Methanesulfonyl-phenyl)-5-morpholin-4-yl-thiophene-2-yl]-pyridin-4-yl-methanone] | 50 | 10.5 | 5.71 | – | – | –
CSc1ccc(C(=O)c2cc(-c3ccccc3)c(N3CCOCC3)s2)cc1 [Example 47, (4-Methylsulfanyl-phenyl)-(5-morpholin-4-yl-4-phenyl-thiophene-2-yl)-methanone] | 5 | -1.5 | 21.2 | – | – | –
COc1ccc(-n2c(-c3cc(-c4ccc(S(C)(=O)=O)cc4)c(N4CCOCC4)s3)nc3ccccc3c2=O)cc1 [Example 303, 2-[4-(4-Methanesulphonyl-phenyl)-5-morpholin-4-yl-thiophen-2-yl]-3-(4-methoxy-phenyl)-3H-quinazolin-4-one] | 53 | 60 | 10 | – | – | –
Cc1c(OCC(F)(F)F)ccnc1-c1sc(N2CCN(C(=O)c3ccco3)CC2)nc1-c1ccco1 [Example 379, Furan-2-yl-(4-{4-furan-2-yl-5-[3-methyl-4-(2,2,2-trifluoro-ethoxy)-pyridin-2-yl]-thiazol-2-yl}-piperazin-1-yl)-methanone] | 62.4 | 51.1 | 3.23 | – | – | –
Cc1ccc(C(=O)c2cc(-c3ccncc3)c(N3CCOCC3)s2)cc1 [Example 103, (5-Morpholin-4-yl-4-pyridin-4-yl-thiophene-2-yl)-p-tolyl-methanone] | -30.8 | 10.3 | 4.35 | – | – | –
COc1c(C)cc(C(=O)c2cc(-c3ccc(NC(C)=O)cc3)c(N3CCOCC3)s2)nc1C [Example 64, N-{4-[5-(5-Methoxy-4,6-dimethyl-pyridine-2-carbonyl)2-morpholin-4-yl-thiophene-3-yl]-phenyl}-acetamide] | 49 | -4.95 | 26.2 | – | – | –
COc1ccccc1-n1c(-c2cc(-c3ccncc3)c(N3CCOCC3)s2)nc2ccccc2c1=O [Example 298] | – | – | – | 42 | 55 | –
O=c1c2ccccc2nc(-c2cc(-c3ccncc3)c(N3CCOCC3)s2)n1-c1ccccc1 [Example 277] | – | – | – | 65 | – | 38
Cc1ccc(C(=O)c2sc(N3CCN(C(=O)c4ccco4)CC3)nc2-c2ccccc2)cc1 [Example 381, {2-[4-(Furan-2-carbonyl)-piperazin-1-yl]-4-phenyl-thiazol-5-yl}-tolyl-methanone] | – | – | – | 53 | – | 10.42
COc1ccc(C(=O)c2sc(N3CCN(C(=O)c4ccco4)CC3)nc2-c2ccco2)cc1 [Example 372, {2-[4-(Furan-2-carbonyl)-piperazin-1-yl]-4-furan-2-yl-thiazol-5-yl}-(4-methoxy-phenyl)-methanone] | 52.2 | – | – | – | – | –
COc1ccc(Nc2nc(NC(=O)Nc3ccc(F)cc3)c(C(=O)c3ccc(C)cc3)s2)cc1 [Example 362, 1-[2-(4-Methoxy-phenylamino)-5-(4-methyl-benzoyl)-thiazol-4-yl]-3-(4-fluoro-phenyl)-urea] | 61.3 | – | – | – | – | –
COc1ccc(Nc2nc(-c3ccccc3)c(C(=O)c3sc(Nc4ccc(OC)cc4)nc3-c3ccccc3)s2)cc1 [Example 393, Bis-[2-(4-methoxy-phenylamino)-4-phenyl-thiazol-5-yl]-methanone] | 32 | – | – | – | – | –
CCOC(=O)Nc1nc(-c2ccccc2)c(C(=O)c2sc(NC(=O)OCC)nc2-c2ccccc2)s1 [Example 131, Diethyl[carbonyl-bis(4-phenyl-1,3-thiazole-5,2-diyl)]biscarbamate] | 69.8 | – | – | – | – | –
